Data as given in patent US9675569B2, “Method for treating a pulmonary disease state in mammals by up regulating indigenous in vivo levels of inflammatory agents in mammalian cells” (priority 2012, dated 2017).

Legend:
HSV-I infected cell = test: Viral plaque reduction in HSV-I infected cells; type: cell-based; details: for viral plaque formation decreased: virally infected cells (Example 1)
Text: The primary end points were the levels of IL-8 and IL-1 after treatment with an immunostimulator, pyruvate and the combination of pyruvate and α-ketoisovalerate. […] IL-8 activates neutrophils to increase their numbers at the infected site. […] IL-1 increases inflammation and decreases healing times. […] Viral plaques are a direct measure of viral numbers in infected cells.

[1] = One week open label home-use trial of sodium pyruvate+saline nasal sprays (Example 5); type: in vivo, human
Text: Thirty-nine (39) subjects who were regular nasal spray users due to chronic sinusitis or allergic rhinitis and other sinus diseases were recruited for a one week open label, in home-use trial. Allergic rhinitis and other sinus diseases result in the elevation of certain inflammatory components and the concurrent down regulation of some other inflammatory components. When this happens, infections can occur. The ability to up-regulate these immune components helps balance the nasal immune system to inhibit infections and minimize injury to surrounding tissues. Six (6) different sodium pyruvate+saline combination nasal sprays, based on concentrations of saline and sodium pyruvate, were administered to the subjects, and each of the test products were used by at least six subjects. The subjects used the test nasal sprays at home (two to three sprays; two or three times a day) for seven days, in place of their regular nasal spray.
Prior to, and at the end of the study period, the subjects' nostrils were examined for mucosal fragility, lesions, erythema, and edema using a rhinoscope.
Thirty-eight subjects completed the study. […] The test formula ranged from 0.5 mM solutions to 20 mM solutions. […] In this case we delivered the 20 mM solution nasal solution with sodium pyruvate. […]

[2] = system: HSV-1, HSV-2 and various rhinoviruses; test: Tissue culture studies, viral plaques; type: cell-based; details: 10-40 mM concentrations
Description: (§1) This medication is an anti-viral drug used to treat infants and young children who have a severe lung infection caused by a certain virus (respiratory syncytial virus-RSV). Nearly all children become infected with this virus before they are 3 years old. […] This medication is used to treat severe RSV infections that need treatment in a hospital. This medication is given by continuous inhalation, usually for 12 to 18 hours daily for 3 to 7 days or as directed by the doctor. A special machine (small-particle aerosol generator) is used to make a mist, which is then inhaled through the mouth or nose. Chest soreness may occur. Redness/irritation of the nasal cavities and eye or eyelid may also occur. When five (5) mls. of a 10 mM solution of pyruvate was used prior to the administration of this medication; the patient reported that the irritation and chest soreness was eliminated. […] Tissue culture studies with HSV-1, HSV-2 and various rhinoviruses, have shown that 10-40 mM concentrations of pyruvate reduced viral plaques by 40-60% by increasing the synthesis of various cytokines. The combination of various antivirals with pyruvate totally eliminated the virus infection in cells. The inhalation of 5.0 mls of a 20 mM solution of sodium pyruvate used by itself reduced viral infections in a patient with sinusitis by 50%.

[3] = system: total protein, elastase, IL-6, IL-8, TNF-α; test: Inhaled sodium pyruvate in cystic fibrosis safety study: sputum inflammatory biomarkers; type: in vivo, human; details: for total proteins, elastase, IL-6, IL-8, and TNF-α: CF subjects
Description: All of the enrolled and dosed subjects were able to provide sputum samples for analysis before and after exposure to study drug (sodium pyruvate for inhalation at 0.5, 1.5, and 5.0 mM levels). The subjects were given 5 ml samples to inhale. Specimens were of good quality for the planned assays.
Samples were divided into two main aliquots after processing. The first aliquot was left untreated to be able to assay for the activity of free elastase. The second aliquot was treated with protease inhibitors pheylmethanesulfonylfluoride (PMSF) and ethylenediamine tetraacetic acid (EDTA) to stop any degradation of the cytokines of interest (IL-6, IL-8, IL-10, IL-17, and IL-23) and total protein.
For IL-10, IL-17 and IL-23, levels on sputum were at or below the limit of detection for the assays (7, 2 and 20 pg/mL respectively). For the other markers (total protein, elastase, IL-6, IL-8, TNF-α) levels detected where within those typically found in cystic fibrosis (CF) patients.

viral infections = test: Inhaled sodium pyruvate in a patient with sinusitis, viral infections; type: in vivo, human; details: inhalation of 5.0 mls of a 20 mM solution, used by itself; one patient
Description: as §1

Question: What does the source list for Nc1nc2c(ncn2COCCO)c(=O)[nH]1 [Acyclovir, 9-[(2-hydroxyethyloxy)methyl]guanine]?
Answer: Percentage of viral plaque reduction in virally infected cells (HSV-I infected cell; Acyclovir alone, therapeutic dose): 40%; viral plaque formation decreased (HSV-I infected cell): 60%

Question: With CC(=O)C(=O)[O-].[Na+] [sodium pyruvate] as the molecule, how does the “effectiveness rated by the patients compared to the 20-40 mM solutions” value ([1]; 0.5 mM to 5 mM solutions) read?
Answer: non-effective to less effective

Question: And the “rating by the patients” value ([1]; 40 mM solution)?
Answer: favorably rated

Question: What about the viral plaques reduced [2] of the same molecule?
Answer: 40-60%

Question: What about the “levels of TNF-α” value ([3]; inhalation at 0.5 mM) of the same molecule?
Answer: did not increase

Question: What about the “levels of white blood cells, elastase, IL-8, IL-6” value ([3]; inhalation at 0.5 mM) of the same molecule?
Answer: reduced

Question: And the “total proteins, elastase, IL-6, IL-8, and TNF-α” value ([3]; inhalation of 5 ml of 0.5 mM)?
Answer: reduced

Question: What about the “total proteins, elastase, IL-6, IL-8, and TNF-α” value ([3]; inhalation of 5 ml of 5 mM or higher) of the same molecule?
Answer: increased

Question: What about the “levels of white blood cells elastase, IL-8, IL-6, IL-10 and TNF-α” value ([3]; inhalation of more than 5 mM in humans) of the same molecule?
Answer: increased

Question: What about the viral infections reduced (viral infections) of the same molecule?
Answer: 50%

Question: What about the “viral plaque formation decreased” value (HSV-I infected cell) of the same molecule?
Answer: 50%
